From ChEMBL document CHEMBL6127034, “Design, synthesis and biological evaluation of a novel PAK1 degrader for the treatment of triple negative breast cancer” (Bioorg Med Chem, 2024)
pIC50: −log10 of the molar value. The source made the active and inactive calls. No cut-off for these calls is given here.

Tests used:
[1] = tested on: MDA-MB-231; assay: Inhibition of cell migration in human MDA-MB-231 cells at 2.5 uM incubated for 24 hrs by transwell assay; assay type: functional, cell-based
[2] = tested on: MDA-MB-231; assay: Inhibition of cell proliferation of human MDA-MB-231 cells assessed as decrease in Ki-67 expression at 2.5 uM incubated for 24 hrs by immunofluorescence based analysis; assay type: functional
[3] = tested on: MDA-MB-231; assay: Induction of apoptosis in human MDA-MB-231 cells assessed as early apoptotic cells at 2.5 uM incubated for 12 to 48 hrs by Annexin V-FITC/PI staining based flow cytometry (reference value: 1.12 %); assay type: functional; conditions: time 12-48 hrs
[4] = tested on: MDA-MB-231; assay: Inhibition of cell migration in human MDA-MB-231 cells at 2.5 uM incubated upto 48 hrs by wound healing assay; assay type: functional, cell-based
[5] = tested on: MDA-MB-231; assay: Inhibition of 3D-spherioid formation of human MDA-MB-231 cells at 2.5 uM by crystal violet staining based colony formation assay; assay type: functional, cell-based
[6] = tested on: MDA-MB-231; assay: Inhibition of cell proliferation of human MDA-MB-231 cells at 2.5 uM by crystal violet staining based colony formation assay; assay type: functional
[7] = tested on: MDA-MB-231; assay: Induction of apoptosis in human MDA-MB-231 cells assessed as necrotic cells at 2.5 uM incubated for 12 to 48 hrs by Annexin V-FITC/PI staining based flow cytometry (reference value: 0.43 %); assay type: functional; conditions: time 12-48 hrs
[8] = tested on: MDA-MB-231; assay: Induction of apoptosis in human MDA-MB-231 cells assessed as viable cells at 2.5 uM incubated for 12 to 48 hrs by Annexin V-FITC/PI staining based flow cytometry (reference value: 97.0 %); assay type: functional; conditions: time 12-48 hrs, read-out: Activity
[9] = tested on: MDA-MB-231; assay: Antiproliferative activity against human MDA-MB-231 cells incubated for 48 hrs by MTT assay; assay type: functional, cell-based; conditions: MDA-MB-231, 48 h
[10] = tested on: MDA-MB-231; assay: Inhibition of cell proliferation of human MDA-MB-231 cells at 2.5 uM by EdU staining based analysis; assay type: functional
[11] = tested on: MDA-MB-231; assay: Induction of apoptosis in human MDA-MB-231 cells assessed as late apoptotic cells at 2.5 uM incubated for 12 to 48 hrs by Annexin V-FITC/PI staining based flow cytometry (reference value: 1.48 %); assay type: functional; conditions: time 12-48 hrs
[12] = biological target: Serine/threonine-protein kinase PAK 1 (Homo sapiens, UniProt Q13153); assay: Inhibition of PAK1 (unknown origin)
Chain of Serine/threonine-protein kinase PAK 1 (Q13153 whole entry): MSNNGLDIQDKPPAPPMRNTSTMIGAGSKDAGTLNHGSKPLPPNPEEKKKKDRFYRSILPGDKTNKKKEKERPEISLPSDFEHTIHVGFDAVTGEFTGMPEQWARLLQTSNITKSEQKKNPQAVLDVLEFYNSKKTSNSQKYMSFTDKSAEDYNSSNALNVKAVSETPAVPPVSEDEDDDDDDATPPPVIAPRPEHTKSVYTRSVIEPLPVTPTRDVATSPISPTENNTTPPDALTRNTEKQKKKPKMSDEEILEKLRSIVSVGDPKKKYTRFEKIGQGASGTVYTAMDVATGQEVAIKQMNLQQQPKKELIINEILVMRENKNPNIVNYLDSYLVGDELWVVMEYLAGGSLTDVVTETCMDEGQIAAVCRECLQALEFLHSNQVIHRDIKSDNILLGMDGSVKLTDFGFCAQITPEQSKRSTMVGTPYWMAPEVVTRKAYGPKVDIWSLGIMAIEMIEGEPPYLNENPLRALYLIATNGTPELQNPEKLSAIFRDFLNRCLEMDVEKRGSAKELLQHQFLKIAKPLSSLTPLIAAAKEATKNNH

[13] = tested on: MDA-MB-231; assay: Antiproliferative activity against human MDA-MB-231 cells; assay type: functional, cell-based

pIC50 [9] | pIC50 [12] | pIC50 [13] | Compound | inhibition [1] | inhibition [2] | Activity [3] [%] | inhibition [4] | inhibition [5] | inhibition [6] | Activity [7] [%] | viability at 2.5 µM [8] [%] | inhibition [10] | Activity [11] [%]
5.49 | – | – | CCn1c(=O)c(-c2ccc(-c3cncs3)cc2Cl)cc2cnc(Nc3ccc(N4CCN(C)CC4)cc3)nc21 | Active | Active | 1.67 | inactive | Active | Active | 0.058 | 97.2 | Active | 1.08
4.54 | 7.28 | 4.54 | CNc1ncc2cc(-c3ccc(Cl)cc3Cl)c(=O)[nH]c2n1 | – | – | – | – | – | – | – | – | – | –
